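Cultured in 96-well plates, cells were exposed to test compound for 48 hours across five concentrations. GI50 is the concentration that inhibits growth by half. Definition used: TGI = concentration required for complete inhibition of growth.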
Columns and labels:
Assay in all cases: growth of human tumour cells (NCI), 48 h
NCI-H460 lung = tested on: NCI-H460 lung
RPMI-8226 leukemia = tested on: RPMI-8226 leukemia
NCI-H23 lung = tested on: NCI-H23 lung
SW-620 colon = tested on: SW-620 colon
BT-549 breast = tested on: BT-549 breast
SF-268 CNS = tested on: SF-268 CNS
SF-539 CNS = tested on: SF-539 CNS
UO-31 renal = tested on: UO-31 renal
K-562 leukemia = tested on: K-562 leukemia
IGROV1 ovarian = tested on: IGROV1 ovarian

| SMILES | GI50 (NCI-H460 lung) [µM] | TGI (NCI-H460 lung) [µM] | GI50 (RPMI-8226 leukemia) [µM] | TGI (RPMI-8226 leukemia) [µM] | GI50 (NCI-H23 lung) [µM] | TGI (NCI-H23 lung) [µM] | GI50 (SW-620 colon) [µM] | TGI (SW-620 colon) [µM] | GI50 (BT-549 breast) [µM] | TGI (BT-549 breast) [µM] | GI50 (SF-268 CNS) [µM] | TGI (SF-268 CNS) [µM] | GI50 (SF-539 CNS) [µM] | TGI (SF-539 CNS) [µM] | GI50 (UO-31 renal) [µM] | TGI (UO-31 renal) [µM] | GI50 (K-562 leukemia) [µM] | TGI (K-562 leukemia) [µM] | GI50 (IGROV1 ovarian) [µM] | TGI (IGROV1 ovarian) [µM] |
| --- | --- | --- | --- | --- | --- | --- | --- | --- | --- | --- | --- | --- | --- | --- | --- | --- | --- | --- | --- | --- |
| Cc1c(C(=N)C(C#N)C#N)c(=N)oc2c1ccc1ccccc12 | 27.2 | > 100 | 20.8 | 78.3 | 16.8 | > 100 | 18.4 | 56.1 | 32.2 | > 100 | 46.5 | > 100 | 20.6 | 71.5 | 8.23 | > 100 | 19.4 | > 100 | 7.76 | 53.4 |
| O=C1Oc2ccccc2C(=O)/C1=C1/C=C(c2ccccc2)SS1 | – | > 100 | – | > 100 | – | > 100 | – | > 100 | – | > 100 | – | > 100 | – | > 100 | – | > 100 | – | > 100 | – | > 100 |
| Cn1c([N+](=O)[O-])cnc1C=C1C(=O)c2ccccc2C1=O | 7.1 | 22 | 3.36 | 13 | 4.9 | 20.5 | 3.34 | 13.1 | 3.86 | 12.8 | 3.95 | 16.7 | 2.6 | 7.51 | 3.83 | 16.2 | 3.34 | 16.3 | 3.56 | 18.5 |
| O=C1C=C[C@H](O)[C@@]2(CO)O[C@@H]12 | 26.8 | > 66.1 | 3.38 | 12 | 15.8 | 31.3 | 2.23 | 5.33 | 12.4 | 25.5 | 15.3 | 29 | 11.6 | 25.6 | 10.4 | 24 | 3.35 | > 75.5 | 10.1 | 29.8 |
| CCN=c1sc2c(n1NC(=O)c1cc3ccc1CCc1ccc(cc1)CC3)C(=O)c1ccccc1C2=O | 1.31 | 4.86 | 0.769 | 2.2 | 0.589 | 1.64 | 0.593 | 1.29 | 0.511 | 0.974 | 0.604 | 1.62 | 0.556 | 1.04 | 0.356 | 0.96 | 0.92 | 13 | 0.449 | 1.31 |
| CCNc1nc(O)c(/C=C2\C=Nc3ncccc32)s1 | 3.93 | 17.8 | 11.7 | 68 | 2.57 | 11.5 | 3.42 | 27.1 | 1.66 | 5.17 | 2.3 | 7.85 | 1.51 | 3.7 | 3.44 | > 100 | 10 | > 100 | 4.66 | > 100 |

From PubChem BioAssay (NCI)
